Data taken from US11479551B2, “MTA-cooperative PRMT5 inhibitors” (Mirati Therapeutics, Inc., priority 2019, dated 2022).
Read-outs that look alike come from different tables or passages of the source.

What was measured:
PRMT5/MEP50 complex [1] = target: T1, PRMT5/MEP50 complex (Homo sapiens (Human), UniProt O14744); assay: PRMT5:MEP50 HotSpot Assay (full-length histone H2A substrate, plus and minus MTA); assay type: biochemical; details: in the presence of 2 μM MTA
How it was run: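 Radiometric filter-binding format using recombinant full-length histone H2A as substrate. After the reaction was stopped, mixtures went onto filter paper and tritiated H2A was quantified by scintillation counting.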

[2] = system: HCT116 homozygous MTAP knockout cells; assay: Proliferation assay (CellTiter-Glo, 10 days of treatment), HCT116 MTAP knockout; assay type: cell-based; details: read-out: Proliferation HCT116MTAP_KO IC50
How it was run: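 Cells (250/well) seeded in McCoy's 5A with 10% FBS, then treated the next day with a PRMT5 inhibitor dose response at 37 °C, 5% CO2. On day 6 they were split 1:10 into fresh medium with the same compound concentration. CellTiter-Glo viability was read on day 11 and IC50 taken after 10 days of treatment.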

PRMT5/MEP50 complex [3] = target: T1, PRMT5/MEP50 complex; assay: PRMT5:MEP50 FlashPlate Assay (histone H4 peptide substrate, plus and minus MTA); assay type: biochemical
Experimental: The PRMT5 inhibitory activity of compounds of the present invention was determined using either a PRMT5:MEP50 FlashPlate Assay (Reaction Biology Corporation) or a PRMT5:MEP50 HotSpot Assay (Reaction Biology Corporation).
1. PRMT5:MEP50 FlashPlate Assay

[4] = system: PRMT5-dependent Symmetric Di-methyl Arginine signal in HCT116 homozygous MTAP knockout cells; assay: SYM11 In-Cell Western, HCT116 MTAP knockout; assay type: cell-based
[5] = system: PRMT5-dependent Symmetric Di-methyl Arginine signal in HCT116 parental cells; assay: SYM11 In-Cell Western, HCT116 parental; assay type: cell-based; details: 4 days of treatment, SYM11/DRAQ5 ratio
Experimental: (§1) Control samples were analyzed in parallel.
Briefly, on Day 0, 2,000 HCT116 parental or HCT116 homozygous MTAP knockout cells were seeded in 96 well plates in McCoy's 5A supplemented with 10% fetal bovine serum and pen/strep and the cells were incubated overnight at 37° C. plus 5% CO2. The following day, cells were treated with DMSO vehicle control or a dose response of PRMT5 inhibitors, and incubated at 37° C. plus 5% CO^2 for four days.
After 4 days of treatment, the cells were fixed by adding 50 μl of 4% paraformaldehyde solution to each well and the cells were incubated for 20 min at room temperature. The paraformaldehyde solution was removed, 150 μl of ice-cold methanol was added and the plate was placed −20° C. for 10 minutes. The methanol was removed, 150 μl of Odyssey Blocking buffer+0.05% Tween20 was added and the plate was incubated at room temperature with shaking for one hour.
The primary SYM11 antibody solution was removed by aspiration and the wells were washed three consecutive times with phosphate buffered saline containing 0.1% Tween-20 (PBST).
The secondary antibody solution was removed by aspiration and the wells were washed three consecutive times with PB ST.
The SYM11 signal and the DRAQ5 signal were quantified using a Li-Cor Odyssey machine reading at […], respectively. The SYM11/DRAQ5 ratio was used to calculate the inhibition of Symmetric Dimethyl Arginine as percent of DMSO control.

HCT116 parental cells = assay: Proliferation assay (CellTiter-Glo, 10 days of treatment), HCT116 parental; assay type: cell-based
Experimental: as §1
Briefly, on Day 0, 250 HCT116 parental or HCT116 homozygous MTAP knockout cell were seeded in 96 well plates in McCoy's 5A supplemented with 10% fetal bovine serum and pen/strep and the cells were incubated overnight at 37° C. plus 5% CO2.
The following day, cells were treated with DMSO vehicle control or a dose response of PRMT5 inhibitors and incubated at 37 C plus 5% CO2 for five days. On Day 6, the cells were trypsinized and split 1:10 into new 96-well plates with fresh medium containing the same concentration of PRMT5 inhibitor and incubated for an additional 5 days at 37° C. plus 5% CO^2.
On Day 11, the viability of the cells was measured using a CTG assay kit (CellTiter-Glo; Promega cat.no G7573) in accordance with the manufacturer's instructions. The IC50 values for each compound after 10 days of treatment were calculated using GraphPad PRISM software.

[6] = IC50 + 2 μM MTA (nM), in the presence of 2 μM MTA
[7] = HCT116 homozygous MTAP knockout cells, 4 days of treatment, SYM11/DRAQ5 ratio, read-out: In-cell-Western (SYM11) HCT116 MTAP_KO IC50
[8] = in the absence of MTA, read-out: IC50
[9] = Homo sapiens, HCT-116, 96 h, HCT116 homozygous MTAP knockout cells, 4 days of treatment, SYM11/DRAQ5 ratio, read-out: In-cell-Western (SYM11) HCT116 MTAP_KO IC50

T1 sequence (O14744 2-637): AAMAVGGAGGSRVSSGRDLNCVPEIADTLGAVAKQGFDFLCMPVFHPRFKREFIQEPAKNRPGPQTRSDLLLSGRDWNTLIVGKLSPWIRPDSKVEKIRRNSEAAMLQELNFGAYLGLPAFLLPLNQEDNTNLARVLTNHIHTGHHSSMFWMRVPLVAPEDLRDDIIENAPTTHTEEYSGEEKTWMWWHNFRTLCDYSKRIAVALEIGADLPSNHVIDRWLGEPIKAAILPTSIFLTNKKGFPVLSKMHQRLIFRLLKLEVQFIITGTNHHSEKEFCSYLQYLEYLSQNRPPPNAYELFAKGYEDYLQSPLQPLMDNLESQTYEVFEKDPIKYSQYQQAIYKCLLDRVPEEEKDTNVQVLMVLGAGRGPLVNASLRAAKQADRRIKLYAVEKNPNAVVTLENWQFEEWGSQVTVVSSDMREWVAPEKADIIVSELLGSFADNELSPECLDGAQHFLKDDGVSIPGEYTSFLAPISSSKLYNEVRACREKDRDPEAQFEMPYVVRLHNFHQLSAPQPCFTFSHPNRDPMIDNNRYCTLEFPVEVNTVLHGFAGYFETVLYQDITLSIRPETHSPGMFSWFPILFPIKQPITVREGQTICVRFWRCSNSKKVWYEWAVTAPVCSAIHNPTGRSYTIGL
T1 sequence (Q9BQA1 2-342 partner): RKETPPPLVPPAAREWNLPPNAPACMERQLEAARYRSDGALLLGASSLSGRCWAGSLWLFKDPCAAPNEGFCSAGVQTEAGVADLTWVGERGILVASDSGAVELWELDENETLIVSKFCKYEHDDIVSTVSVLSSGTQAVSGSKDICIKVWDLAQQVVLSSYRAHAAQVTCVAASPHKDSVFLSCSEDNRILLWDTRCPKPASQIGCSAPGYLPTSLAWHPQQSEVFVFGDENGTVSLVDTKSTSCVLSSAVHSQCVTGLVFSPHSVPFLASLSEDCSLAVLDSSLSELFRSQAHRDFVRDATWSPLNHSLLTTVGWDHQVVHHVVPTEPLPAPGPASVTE

Row | Structure (SMILES) | IC50 (PRMT5/MEP50 complex [1]; IC50 + 2 μM MTA) | IC50 (PRMT5/MEP50 complex [3]; [6]) | IC50 ([2]; Homo sapiens, HCT-116, 240 h) | IC50 (PRMT5/MEP50 complex [3]; [8]) | IC50 [4, 9] | IC50 ([5]; Homo sapiens, HCT-116, 96 h) | IC50 (HCT116 parental cells; Homo sapiens, HCT-116, 240 h) | further results
1 | CC(N)c1n[nH]c(=O)c2ccc(-c3cnn(C)c3-c3cccc(Cl)c3C#N)cc12 (single isomer, unassigned) [Example 9-2, 2-[4-[4-(1-aminoethyl)-1-oxo-2H-phthalazin-6-yl]-2-methyl-pyrazol-3-yl]-6-chloro-benzonitrile] | > 10000 nM | > 10000 nM |  |  |  |  |  | IC50 [2]: > 10000 nM; IC50 [4, 7]: > 1000 nM
2 | CC(N)c1n[nH]c(=O)c2ccc(-c3cnn(C)c3-c3ccc4ccccc4c3C#N)cc12 (single isomer, unassigned) [Example 9-5, 2-[4-[4-(1-aminoethyl)-1-oxo-2H-phthalazin-6-yl]-2-methyl-pyrazol-3-yl]naphthalene-1-carbonitrile] |  |  |  |  |  | > 1000 nM | 6440 nM | IC50 [2]: 125 nM; IC50 [4, 7]: 42 nM
3 | Cn1ncc(-c2ccc3c(=O)[nH]nc(CN)c3c2)c1-c1c(F)cc2ccccc2c1C#N (single isomer, unassigned) [Example 16-1] |  |  |  |  |  |  |  | IC50 (PRMT5/MEP50 complex [1]; read-out: IC50 + 2 μM MTA): 38 nM; IC50 [4, 7]: 2 nM; IC50 [5]: 316 nM; IC50 (HCT116 parental cells): 757 nM
4 | Cn1ncc(-c2ccc3c(=O)[nH]nc(CN)c3c2)c1-c1ccc(Cl)cc1C#N [Example 4-101, 2-(4-(4-(aminomethyl)-1-oxo-1,2-dihydrophthalazin-6-yl)-1-methyl-1H-pyrazol-5-yl)-5-chlorobenzonitrile] | 892 nM | 0.5 nM | 2310 nM | 17 nM | 376 nM | 6670 nM |  | 
5 | Cn1ncc(-c2ccc3c(=O)[nH]nc(CN)c3c2)c1-c1cc(Cl)ccc1C#N [Example 4-103, 2-(4-(4-(aminomethyl)-1-oxo-1,2-dihydrophthalazin-6-yl)-1-methyl-1H-pyrazol-5-yl)-4-chlorobenzonitrile] |  | 0.5 nM | 4390 nM | 115 nM | 255 nM | 6670 nM |  | 
6 | COc1ccc(C#N)c(-c2c(-c3ccc4c(=O)[nH]nc(CN)c4c3)cnn2C)c1 [Example 4-104, 2-(4-(4-(aminomethyl)-1-oxo-1,2-dihydrophthalazin-6-yl)-1-methyl-1H-pyrazol-5-yl)-4-methoxybenzonitrile] | 794 nM | 0.5 nM | 5320 nM | 28 nM | 391 nM | 3330 nM |  | 
7 | NCc1n[nH]c(=O)c2ccc(-c3cnc4[nH]cc(-c5ccccc5)c4c3)cc12 [Example 4-190, 4-(aminomethyl)-6-(3-phenyl-1H-pyrrolo[2,3-b]pyridin-5-yl)phthalazin-1(2H)-one] | 278 nM |  | 1980 nM |  | > 3330 nM | > 3330 nM |  | 
8 | Cn1ncc(-c2ccc3c(=O)[nH]nc(CN)c3c2)c1-c1c(F)c(Cl)cc(OC2CC2)c1C#N [Example 4-230, 2-(4-(4-(aminomethyl)-1-oxo-1,2-dihydrophthalazin-6-yl)-1-methyl-1H-pyrazol-5-yl)-4-chloro-6-cyclopropoxy-3-fluorobenzonitrile] |  |  |  |  |  | > 1000 nM | 1890 nM | IC50 ([4]; Homo sapiens, HCT-116, 96 h, read-out: In-cell-Western (SYM11) HCT116 MTAP_KO IC50, HCT116 homozygous MTAP knockout cells, 4 days of treatment, SYM11/DRAQ5 ratio): 6 nM
9 | CCOc1ccc(-c2c(-c3ccc4c(=O)[nH]nc(CN)c4c3)cnn2C)cc1 [Example 4-254, 4-(aminomethyl)-6-[5-(4-ethoxyphenyl)-1-methyl-pyrazol-4-yl]-2H-phthalazin-1-one] |  |  | 2170 nM |  | 377 nM | 3330 nM |  | 

More lines, in order of falling IC50 ([2]; Homo sapiens, HCT-116, 240 h), values ahead:

Row | IC50 (PRMT5/MEP50 complex [1]; IC50 + 2 μM MTA) | IC50 (PRMT5/MEP50 complex [3]; [6]) | IC50 ([2]; Homo sapiens, HCT-116, 240 h) | IC50 (PRMT5/MEP50 complex [3]; [8]) | IC50 [4, 9] | Structure (SMILES) | IC50 ([5]; Homo sapiens, HCT-116, 96 h) | IC50 (HCT116 parental cells; Homo sapiens, HCT-116, 240 h) | further results
10 | 816 nM | 0.5 nM | 1600 nM | 56 nM | 261 nM | Cc1ccc(-c2c(-c3ccc4c(=O)[nH]nc(CN)c4c3)cnn2C)c(C#N)c1 [Example 4-106, 2-(4-(4-(aminomethyl)-1-oxo-1,2-dihydrophthalazin-6-yl)-1-methyl-1H-pyrazol-5-yl)-5-methylbenzonitrile] | 3330 nM |  | 
11 | 1000 nM | 1.8 nM | 1400 nM | 71 nM | 469 nM | Cc1ccc(C#N)c(-c2c(-c3ccc4c(=O)[nH]nc(CN)c4c3)cnn2C)c1 [Example 4-105, 2-(4-(4-(aminomethyl)-1-oxo-1,2-dihydrophthalazin-6-yl)-1-methyl-1H-pyrazol-5-yl)-4-methylbenzonitrile] | 10000 nM |  | 
12 | 760 nM | 0.5 nM | 1060 nM | 37 nM | 31 nM | COc1cccc(-c2c(-c3ccc4c(=O)[nH]nc(CN)c4c3)cnn2C)c1C#N [Example 4-107, 2-(4-(4-(aminomethyl)-1-oxo-1,2-dihydrophthalazin-6-yl)-1-methyl-1H-pyrazol-5-yl)-6-methoxybenzonitrile] | 10000 nM |  | 
13 | 1930 nM |  | 489 nM |  | 8 nM | CCOc1cccc(-c2c(-c3cc(C)c4c(=O)[nH]nc(CN)c4c3)cnn2C)c1C#N [Example 10-9, 2-(4-(4-(aminomethyl)-8-methyl-1-oxo-1,2-dihydrophthalazin-6-yl)-1-methyl-1H-pyrazol-5-yl)-6-ethoxybenzonitrile] |  | 9820 nM | 
14 | 948 nM |  | 155 nM |  | 16 nM | CCc1c(OC)ccc(-c2c(-c3ccc4c(=O)[nH]nc(CN)c4c3)cnn2C)c1C#N [Example 4-201, 2-(4-(4-(aminomethyl)-1-oxo-1,2-dihydrophthalazin-6-yl)-1-methyl-1H-pyrazol-5-yl)-6-ethyl-5-methoxybenzonitrile] |  | > 10000 nM | 
15 | 276 nM |  | 120 nM |  | 2 nM | CCc1c(Cl)ccc(-c2c(-c3ccc4c(=O)[nH]nc(CN)c4c3)cnn2C)c1C#N [Example 4-199, 6-(4-(4-(aminomethyl)-1-oxo-1,2-dihydrophthalazin-6-yl)-1-methyl-1H-pyrazol-5-yl)-3-chloro-2-ethylbenzonitrile] |  | 8850 nM | 
16 |  |  | 98 nM |  | 3 nM | Cn1ncc(-c2ccc3c(=O)[nH]nc(CN)c3c2)c1-c1cc(C#N)c2ccccc2c1C#N [Example 4-207, 2-(4-(4-(aminomethyl)-1-oxo-1,2-dihydrophthalazin-6-yl)-1-methyl-1H-pyrazol-5-yl)naphthalene-1,4-dicarbonitrile] | > 10000 nM |  | 
17 |  |  | 52 nM |  | 12 nM | COc1cccc2c(C#N)c(-c3c(-c4ccc5c(=O)[nH]nc(CN)c5c4)cnn3C)ccc12 [Example 4-204, 2-(4-(4-(aminomethyl)-1-oxo-1,2-dihydrophthalazin-6-yl)-1-methyl-1H-pyrazol-5-yl)-5-methoxy-1-naphthonitrile] | > 1000 nM | 1830 nM | 
18 |  |  | 19 nM |  | 2 nM | Cn1ncc(-c2ccc3c(=O)[nH]nc(CN)c3c2)c1-c1c(F)cc2ccccc2c1C#N [Example 4-203, 2-(4-(4-(aminomethyl)-1-oxo-1,2-dihydrophthalazin-6-yl)-1-methyl-1H-pyrazol-5-yl)-3-fluoro-1-naphthonitrile] | 903 nM | 1210 nM | 
